Results from US20120149647A1, “Methods for Assessing the Efficacy of Gemcitabine or Ara-C Treatment of Cancer Using Human Antigen R Levels” (priority 2009, published 2012).
“Also recorded” adds a separate entry of the source.

What was measured:
[1] = tested on: pancreatic cancer cell lines MiaPaca2, PL-5, and Hs766t; assay: Drug sensitivity assay (PicoGreen cell survival), HuR-overexpressing vs control lines; type: cell-based; details: PicoGreen cell survival after 5-7 days of drug, HuR vs empty vector/control cells
From the text: HuR cDNA sequence was cloned into the pcDNA 3.1. Zeo vector (Invitrogen) for stable transfection of pancreatic cancer cell lines MiaPaca2, PL-5, and Hs766t. Pooled cells remained under selection media containing Zeocin (Invitrogen) for several months after transfection. Mia.HuR, PL5.HuR, and Hs766t. HuR denote link overexpressing lines; Mia.EV, PL5.EV, and Hs766t denote empty vector or control lines. HuR and control siRNA sequences and transfection conditions were as described.
Mia.HuR, Mia.EV, Hs766t.HUR, Hs766t, and PL5.HuR, PL5.EV cells were seeded (1000 cells/well) in 96-well plates and treated with Etoposide, 5-Fluorouracil, Cis-platin, Staurosporine, Nocodazole, Colcemid, Ara-C (Sigma), and GEM (Gemzar, Eli-Lilly, Indianapolis, Ind.) for 6-7 days. After treatment, cells were washed with PBS and lysed with 100 μL of water/well; cell viability was quantified by staining of double-stranded DNA with QuantiT™ PicoGreen (Invitrogen) and analyzed with a TECAN SpectraFluor.

[2] = tested on: Mia.EV and Mia.HuR cell lines; assay: Cell cycle analysis and apoptosis assay (flow cytometry); type: cell-based; details: 0.03 μM GEM, 48 h
Protocol: Mia.EV and Mia.HuR cell lines were either left untreated or treated with 0.03 μM GEM for 48 h. For cell cycle analysis, cells were then fixed in 100% ethanol, and stained with a propidium iodide solution containing RNAse A (Sigma Aldrich). For apoptosis assays, cells were resuspended at 10^6 cells/mL and incubated in Annexin V and Propidium Iodide, following the manufacturers' protocol (FITC Annexin V, BD Pharmigen). Both assays were analyzed by flow cytometry.

HuR in MiaPaCa2 cells = assay: HuR levels and localization by immunoblot and immunofluorescence; type: cell-based; details: parental MiaPaCa2 cells, GEM treatment
Protocol: Cells were plated on LabTek II™ Chamber slides (Fisher Scientific) and fixed in 3% paraformaldehyde (20 min, RT). Cells were washed with PBS and permeabilized using 0.5% Triton X-100/1% normal goat serum (Vector Laboratories) in PBS (15 min). After washes in 1% goat serum/PBS, cells were incubated (1:50 dilution, 1 hr, RT) with mouse anti-HuR (Santa Cruz) or anti-deoxycytidine kinase (dCK, Abnova) primary antibodies. After washes in PBS, cells were incubated for 1 hr with goat anti-mouse secondary antibody (1:400, Alexa Fluor 647, Molecular Probes). Nuclei were stained with DAPI and cells were evaluated under a Zeiss LSM-510 Confocal Laser Microscope.
Whole-cell, cytoplasmic, and nuclear lysates were prepared as described (Kuwano Y, et al. Mol Cell Biol 2008; 28:4562-75), and protein was size-fractionated by SDS-PAGE (10% acrylamide). Membranes were blocked for 1 h in 5% Milk/TBS-T and incubated overnight with monoclonal antibodies (Santa Cruz) recognizing HuR, dCK, the cytoplasmic marker α-Tubulin, or the nuclear marker hnRNP. Membranes were washed with TBS-T and incubated with secondary antibodies; and the resulting signals were visualized by chemiluminescence (Millipore). Total protein was visualized with Fast Green (USB).

[3] = tested on: HuR association with dCK mRNA in MiaPaCa2 cells; assay: RNP IP assay of HuR association with dCK mRNA; dCK protein and mRNA levels; type: cell-based; details: GEM treatment
Protocol: MiaPaCa2 cells were treated with 4 μM GEM and collected 48 hours later. For biotin pulldown analysis (Kuwano Y, et al. Mol Cell Biol 2008; […]), cytoplasmic extracts were isolated using, the NE-PER® Nuclear and Cytoplasmic Extraction Reagents Kit (Pierce Biotechnology) Probes for biotin pull-down analysis were synthesized as described (Kuwano Y, et al. Mol Cell Biol 2008; […] using the following PCR primers (sense and antisense, respectively) containing the T7 RNA polymerase promoter sequence […] (T7) (SEQ ID NO: 1): (T7)[…] (SEQ ID NO: 2) and […] (SEQ ID NO: 3) for dCK 3′UTR; (T7)[…] (SEQ ID NO: 4) and […] (SEQ ID NO: 5) for GAPD 3′UTR (Casolaro V, et al. J Allergy Clin Immunol 2008; 121:853-9 e4) (see supplemental figure for depiction of UTR positions). Biotinylated probes were synthesized using the MAXIscript T7 kit (Ambion) and Biotinylated dCTP (Enzo Life Sciences). For immunoprecipitation of endogenous RNA-protein complexes (RNP IP) from cytoplasmic (450 μg) extracts, reactions were carried out as described (Kuwano Y, et al. Mol Cell Biol 2008; 28:4562-75), using protein A Sepharose beads (Sigma) that were precoated with 30 μg of either mouse immunoglobulin G1 (IgG1; BD Biosciences), or anti-HuR antibodies. […] GAPDH and dCK transcripts were quantified by real-time PCR analysis using each specific primers: […] […]

[4] = tested on: pancreatic ductal adenocarcinoma; assay: Overall survival of resected PDA patients receiving GEM, stratified by cytoplasmic HuR; type: in vivo; details: for adjusted hazard ratio of low to high HuR: adjusted for age, sex, Xeloda use and radiation therapy
Protocol: HuR immunostaining was performed on 32 resected PDA specimens from the Thomas Jefferson University pathology archives after IRB approval. All patients received GEM, alone or in combination with XELODA® (Capecitabine) (2 patients), radiation therapy (8 patients) or both (2 patients). The experienced pancreatic pathologist (A.K.W.) reviewed all cases in a blinded fashion and classified the tumors as well differentiated (n=6), moderately differentiated (n=22), or poorly differentiated […]. For each case, representative sections were selected for immunohistochemical analysis of HuR cytoplasmic and nuclear staining patterns, which were scored using the following scale: 0 for no staining, 1 for weak and/or focal (<10% of the cells) staining; 2 for moderate or strong, staining (10-50% of the cells); and 3 for moderate or strong staining (>50% of the cells). Combined scores 0 and 1 represented low expression, while combined scores 2 and 3 represented high expression.

[5] = patients receiving GEM, listed as gemcitabine

Nc1ccn([C@@H]2O[C@H](CO)[C@@H](O)[C@@H]2O)c(=O)n1 [Ara-C, Cytarabine]
sensitivity of HuR-overexpressing cell lines compared with control lines [1]: selectively more sensitive; also recorded: hypersensitive

Nc1ccn(C2OC(CO)C(O)C2(F)F)c(=O)n1 (stereo not drawn) [GEM, 4-amino-1-[3,3-difluoro-4-hydroxy-5-(hydroxymethyl)tetrahydrofuran-2-yl]-1H-pyrimidin-2-one]
sensitivity of HuR-overexpressing cell lines compared with control lines [1]: more sensitive
sensitivity of HuR-overexpressing cell lines compared with control lines ([1]; listed as gemcitabine): strikingly hypersensitive
apoptosis of HuR overexpressing cells compared to control cells [2]: increased apoptosis
cell cycle distribution of HuR overexpressing cells compared to control cells [2]: selective enrichment in the S-phase
cytoplasmic HuR levels (HuR in MiaPaCa2 cells): significantly increased
whole-cell HuR levels (HuR in MiaPaCa2 cells): did not alter
overall dCK protein or mRNA levels [3]: did not alter
HuR's association with dCK mRNA ([3]; RNP IP): significantly increased
hazard ratio of low to high HuR, univariate Cox regression ([4]; patients receiving GEM): 4.48
adjusted hazard ratio of low to high HuR ([4]; patients receiving GEM): 7.34
adjusted hazard ratio of low to high HuR [4, 5]: 5.04
hazard ratio of low to high HuR, univariate Cox regression [4, 5]: 3.36
increase in risk of death, low vs high HuR levels [4, 5]: 5 fold
median overall survival time for patients on GEM ([4]; resected PDA patients, GEM alone or combined): 619 days
